Patent US5506102A (priority 1993, dated 1996)

How the values were obtained:
[1] = biological target: T1, human progesterone receptor isoform PR-A (Homo sapiens, UniProt P06401); assay: PR-A transactivation of MMTV-LUC reporter, transient transfection; assay type: cell-based; settings: 10^-7 M progesterone
T1 sequence (P06401 165-933): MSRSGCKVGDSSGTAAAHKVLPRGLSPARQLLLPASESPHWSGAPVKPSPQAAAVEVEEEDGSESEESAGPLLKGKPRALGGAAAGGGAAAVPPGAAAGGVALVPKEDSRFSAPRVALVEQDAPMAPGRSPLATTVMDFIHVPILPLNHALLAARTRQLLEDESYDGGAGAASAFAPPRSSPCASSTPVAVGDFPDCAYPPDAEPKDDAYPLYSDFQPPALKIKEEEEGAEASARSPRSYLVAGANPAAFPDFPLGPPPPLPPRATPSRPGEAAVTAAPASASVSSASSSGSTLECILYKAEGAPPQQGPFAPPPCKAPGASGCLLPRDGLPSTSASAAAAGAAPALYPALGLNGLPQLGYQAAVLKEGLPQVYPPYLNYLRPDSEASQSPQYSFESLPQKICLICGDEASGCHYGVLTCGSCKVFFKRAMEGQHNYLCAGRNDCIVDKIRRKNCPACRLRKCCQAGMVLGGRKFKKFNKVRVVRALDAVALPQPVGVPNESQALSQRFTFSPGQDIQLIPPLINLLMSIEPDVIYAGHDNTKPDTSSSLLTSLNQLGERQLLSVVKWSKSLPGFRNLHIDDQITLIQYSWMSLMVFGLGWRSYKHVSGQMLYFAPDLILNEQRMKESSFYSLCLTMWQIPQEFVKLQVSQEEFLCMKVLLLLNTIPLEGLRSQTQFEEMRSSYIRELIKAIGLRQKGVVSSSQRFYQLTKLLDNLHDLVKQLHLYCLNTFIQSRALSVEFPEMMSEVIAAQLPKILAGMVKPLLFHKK
Description: Cells were seeded in 12-well, 96-well or 10 cm tissue culture plates. […] 20 μg of DNA/ml of transfection buffer were used in each transfection reaction. In this mix, the concentration of the luciferase plasmids and that of the internal control plasmid pCH110 (Pharmacia, Inc.), which contains the gene for the β-galactosidase enzyme, remained constant ([…] of each plasmid DNA), while the receptor plasmid concentration varied as indicated for each experiment. Different amounts of receptor parental plasmid, pSV2-neo (Dr. Bert O'Malley, Baylor College of Medicine, Houston, Tex.) was included to keep constant the total amount of the SV40 enhancer vectors. pGEM4 plasmid DNA (Promega Biotech, Madison, Wis.) was added to balance the total DNA concentration to 20 g/reaction. For the 96-well plate experiments, transfections were performed on a Biomek 1000 Automated Laboratory Workstation (Beckman Instruments, Fullerton, Calif.).
Cells were seeded 24 hours prior to transfection in the fiat-bottom tissue culture plates ([…]) in phenol red-free DMEM containing 10% FCS. […] Using calcium phosphate co-precipitation, DNA solution was added dropwise with vortexing into an equal volume of 2X HBS pH 6.9 (280 mM NaCl. 50 mM HEPES, 1.5 mM Na2 HPO4) and precipitates were allowed to form for 20 minutes. Cells were transfected ( […] of DNA mix/well) for 6 hours and then washed with phosphate-bufferedsaline (PBS) to remove the precipitate. Cells were incubated for an additional 24 hours in phenol red-free medium containing 10% charcoal-treated FCS, with or without hormones as indicated in the text. Cell extracts were prepared as described by Berger et al., Supra, and assayed for luciferase and β-galactosidase activities. All determinations were performed in triplicates in at least two independent experiments, and were normalized for transfection efficiency by using β-galactosidase as an internal control.

human estrogen receptor = biological target: T2, human estrogen receptor (Homo sapiens, UniProt P03372); assay: ER transcriptional activity on MMTV-ERE-LUC, CV-1 cells, ER alone; assay type: cell-based; settings: 10^-7 M 17β-estradiol
T2 construct: expressed in transfected cells; host or cells: CV-1
T2 sequence (P03372 1-595): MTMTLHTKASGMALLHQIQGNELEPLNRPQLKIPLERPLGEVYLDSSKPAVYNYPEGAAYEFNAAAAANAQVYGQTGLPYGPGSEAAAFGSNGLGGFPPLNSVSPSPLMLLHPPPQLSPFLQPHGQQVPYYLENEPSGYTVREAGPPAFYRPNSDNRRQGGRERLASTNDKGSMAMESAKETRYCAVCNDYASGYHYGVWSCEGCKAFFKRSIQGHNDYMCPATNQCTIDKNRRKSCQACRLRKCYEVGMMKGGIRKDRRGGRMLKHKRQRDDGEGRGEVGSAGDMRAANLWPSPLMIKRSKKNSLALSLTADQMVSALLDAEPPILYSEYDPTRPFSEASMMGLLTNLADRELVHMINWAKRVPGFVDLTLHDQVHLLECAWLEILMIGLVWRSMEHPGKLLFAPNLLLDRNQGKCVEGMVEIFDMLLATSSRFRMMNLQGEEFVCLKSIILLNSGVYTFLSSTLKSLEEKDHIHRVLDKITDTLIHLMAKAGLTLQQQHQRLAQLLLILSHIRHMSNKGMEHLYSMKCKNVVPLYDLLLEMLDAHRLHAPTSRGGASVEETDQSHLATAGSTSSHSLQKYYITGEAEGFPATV
Description: All values were normalized for transfection efficiency by simultaneous estimation of luciferase and β-galactocidase activities. The relative luciferase activity is calculated by dividing the normalized luciferase value at a given point by that obtained in the absence of transfected receptor or ligand. Data shown represent the mean +/- the average deviation from the mean of triplicate estimations.
Experimental protocols and data calculation are as described in FIG. 11. The experiment detailed above is representative of independent assays (N>3). Data shown represent the mean +/- the average deviation from the mean of triplicate estimations.
Vegeto et al., supra. Cells were plated into 96-well tissue culture plates. The vector DNA was introduced into the CV-1 cells using calcium phosphate coprecipitation as described herein. More specifically, 20 μg of DNA/ml of transfection buffer were used in each transfection. […] The concentration of pXVhPR-A vector chosen was determined by performing the experiment at several different concentrations of vector, and then using that concentration that was optimal for transcriptional readout. […] The Normalized LUC activity was calculated by dividing the raw luciferase (×10^4) units for each point by the β-galactosidase activity [(OD415 nm ×10^5)/time min.] at that point.

For `CC(=O)[C@H]1CC[C@H]2[C@@H]3CCC4=CC(=O)CC[C@]4(C)[C@H]3CC[C@]12C` [progesterone], the “progesterone-induced activation of the MMTV promoter by PR-A” value ([1]; CV-1 cells, FIG. 2A) was “no progesterone-induced activation of the MMTV promoter by PR-A was observed”, the maximal induction ([1]; HeLa cells, MMTV, 250 ng of transfected DNA, FIG. 2B) was “ten-fold” and the “activation of the MMTV promoter by PR-A” value ([1]; HepG2 cells, FIG. 2C) was “both PR-A and PR-B functioned as efficient activators”. For the same compound, the “direct effects on ER” value (human estrogen receptor) was “no direct effects on ER were observed”.
